These compounds were tested on HCV 1b-377-neo replicon cells (assay: HCV replicon assay, HCV 1b-377-neo replicon cells (1b FRET)). Settings: HCV 1b-377-neo replicon cells; HCV 1b genotype.
Assay type: cell-based, Hepatitis C virus genotype 1b
Method in brief: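 Compounds tested in HCV genotype 1b-377-neo replicon cells with a FRET read-out. Cells resistant to a reference NS5A inhibitor through a Y2065H NS5A mutation were run alongside wild-type cells.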

Structure (SMILES) | EC50 range against HCV 1b (Table 2, Range)
C[C@@H](C(=O)N1CCC[C@H]1c1ncc(-c2ccc(-c3ccc(-c4cnc([C@@H]5CCCN5C(=O)[C@H](C)N(C)C)[nH]4)cc3)cc2)[nH]1)N(C)C [Example M19, (2S,2′S)-1,1′-(4,4′-biphenyldiylbis(1H-imidazole-5,2-diyl(2S)-2,1-pyrrolidinediyl))bis(N,N-dimethyl-1-oxo-2-propanamine)] | >A

Same assay, conditions: HCV 1b-377-neo replicon cells; HCV 1b genotype; read-out: EC50 range against HCV 1b (Table 2, Range)

Structure (SMILES) | EC50 [nM]
COC(=O)N[C@@H](C(=O)N1CCC[C@H]1c1ncc(-c2ccc(-c3ccc(-c4cnc([C@@H]5CCCN5C(=O)Cc5ccccc5CN5CCCCC5)[nH]4)cc3)cc2)[nH]1)c1ccccc1 [Example 84-85, methyl ((1R)-2-oxo-1-phenyl-2-((2S)-2-(5-(4′-(2-((2S)-1-((2-(1-piperidinylmethyl)phenyl)acetyl)-2-pyrrolidinyl)-1H-imidazol-5-yl)-4-biphenylyl)-1H-imidazol-2-yl)-1-pyrrolidinyl)ethyl)carbamate] | 0.001 to 0.999

Same assay, conditions: Hepatitis C virus, HCV 1b-377-neo replicon cells; HCV 1b genotype; read-out: EC50 range against HCV 1b (Table 2, Range)

Structure (SMILES) | EC50 [nM]
COC(=O)N[C@@H](C(=O)N1CCC[C@H]1c1ncc(-c2ccc(-c3ccc(-c4cnc([C@@H]5CCCN5C(=O)[C@@H](c5ccccc5Cl)N(C)C)[nH]4)cc3)cc2)[nH]1)c1ccccc1Cl [Example 107-44, methyl ((1R)-1-(2-chlorophenyl)-2-((2S)-2-(5-(4′-(2-((2S)-1-((2R)-2-(2-chloro-phenyl)-2-(dimethylamino)acetyl)-2-pyrrolidinyl)-1H-imidazol-5-yl)-4-biphenylyl)-1H-imidazol-2-yl)-1-pyrrolidinyl)-2-oxoethyl) carbamate] | 0.001 to 0.999
CN(C)[C@@H](C(=O)N1CCC[C@H]1c1ncc(-c2ccc(-c3ccc(-c4cnc([C@@H]5CCCN5C(=O)Cc5cccc(O)c5)[nH]4)cc3)cc2)[nH]1)c1ccccc1 [Example 94-13, 3-(2-((2S)-2-(5-(4′-(2-((2S)-1-((2R)-2-(dimethylamino)-2-phenylacetyl)-2-pyrrolidinyl)-1H-imidazol-5-yl)-4-biphenylyl)-1H-imidazol-2-yl)-1-pyrrolidinyl)-2-oxoethyl)phenol] | 0.001 to 0.999
COC(=O)N[C@@H](C(=O)N1CCC[C@H]1c1ncc(-c2ccc(-c3ccc(-c4cnc([C@@H]5CCCN5C(=O)[C@H](NC(=O)OC)c5ccccc5)[nH]4)nc3)cc2)[nH]1)c1ccccc1 [Example 147, methyl ((1R)-2-((2S)-2-(5-(5-(4-(2-((2S)-1-((2R)-2-((methoxycarbonyl)amino)-2-phenylacetyl)-2-pyrrolidinyl)-1H-imidazol-5-yl)phenyl)-2-pyridinyl)-1H-imidazol-2-yl)-1-pyrrolidinyl)-2-oxo-1-phenylethyl)carbamate] | 0.001 to 0.999
CCN(CC)[C@@H](C(=O)N1CCC[C@H]1c1ncc(-c2ccc(-c3ccc(-c4cnc([C@@H]5CCCN5C(=O)[C@@H](NC(=O)OC)C5CCOCC5)[nH]4)cc3)cc2)[nH]1)c1ccccc1 [LS14, methyl ((1S)-2-((2S)-2-(5-(4′-(2-((2S)-1-((2R)-2-(diethylamino)-2-phenylacetyl)-2-pyrrolidinyl)-1H-imidazol-5-yl)-4-biphenylyl)-1H-imidazol-2-yl)-1-pyrrolidinyl)-2-oxo-1-(tetrahydro-2H-pyran-4-yl)ethyl)carbamate] | 0.001 to 0.999
COC(=O)c1nc([C@@H]2CCCN2C(=O)[C@@H](c2ccccc2)N(C)C)[nH]c1-c1ccc(-c2ccc(-c3cnc([C@@H]4CCCN4C(=O)[C@@H](c4ccccc4)N(C)C)[nH]3)cc2)cc1 [Example J17, methyl 2-((2S)-l-((2R)-2-(dimethylamino)-2-phenylacetyl)-2-pyrrolidinyl)-5-(4′-(2-((2S)-1-((2R)-2-(dimethylamino)-2-phenylacetyl)-2-pyrrolidinyl)-1H-imidazol-5-yl)-4-biphenylyl)-1H-imidazole-4-carboxylate] | 0.001 to 0.999
COC(=O)N(C)[C@H](C(=O)N1CCC[C@H]1c1ncc(-c2ccc(-c3ccc(-c4cnc([C@@H]5CCCN5C(=O)[C@H](C(C)C)N(C)C(=O)OC)[nH]4)cc3)cc2)[nH]1)C(C)C [Example M11, methyl ((1S)-1-(((2S)-2-(5-(4′-(2-((2S)-1-((2S)-2-((methoxycarbonyl)(methyl)amino)-3-methylbutanoyl)-2-pyrrolidinyl)-1H-imidazol-5-yl)-4-biphenylyl)-1H-imidazol-2-yl)-1-pyrrolidinyl)carbonyl)-2-methylpropyl)methyl-carbamate] | 1 to 99
O=C(N1CCC[C@H]1c1ncc(-c2ccc(-c3ccc(-c4cnc([C@@H]5CCCN5C(=O)C5(O)CC5)[nH]4)cc3)cc2)[nH]1)C1(O)CC1 [Example 24, 1,1′-(4,4′-biphenyldiylbis(1H-imidazole-5,2-diyl(2S)-2,1-pyrrolidinediylcarbonyl))dicyclopropanol] | 1 to 99
CCN(CC)[C@@H](C(=O)N1CCC[C@H]1c1ncc(-c2ccc(-c3ccc(-c4cnc([C@@H]5CCCN5C(=O)[C@H](NC(=O)OC)c5ccccc5)[nH]4)cc3)cc2)[nH]1)c1ccccc1 [Example M47, methyl ((1R)-2-((2S)-2-(5-(4′-(2-((2S)-1-((2R)-2-(diethylamino)-2-phenylacetyl)-2-pyrrolidinyl)-1H-imidazol-5-yl)-4-biphenylyl)-1H-imidazol-2-yl)-1-pyrrolidinyl)-2-oxo-1-phenylethyl)carbamate] | 1 to 99
CC(=O)OC(C(=O)N1CCC[C@H]1c1ncc(-c2ccc(-c3ccc(-c4cnc([C@@H]5CCCN5C(=O)[C@@H](c5ccccc5F)N(C)C)[nH]4)cc3)cc2)[nH]1)c1ccccc1 (stereo in doubt) [Example 107-33, (1R)-2-((2S)-2-(5-(4′-(2-((2S)-1-((2R)-2-(dimethylamino)-2-(2-fluorophenyl)acetyl)-2-pyrrolidinyl)-1H-imidazol-5-yl)-4-biphenylyl)-1H-imidazol-2-yl)-1-pyrrolidinyl)-2-oxo-1-phenylethyl acetate] | 0.001 to 0.999
CN(C)[C@@H](C(=O)N1CCC[C@H]1c1ncc(-c2ccc(-c3ccc(-c4cnc([C@@H]5CCCN5C(=O)[C@@H](c5ccccc5)N5CCCCC5)[nH]4)cc3)cc2)[nH]1)c1ccccc1 [Example 28-1, (1R)—N,N-dimethyl-2-oxo-1-phenyl-2-((2S)-2-(5-(4′-(2-((2S)-1-((2R)-2-phenyl-2-(1-piperidinyl)acetyl)-2-pyrrolidinyl)-1H-imidazol-5-yl)-4-biphenylyl)-1H-imidazol-2-yl)-1-pyrrolidinyl)ethanamine] | 0.001 to 0.999
CCCN(CCC)[C@H](C)C(=O)N1CCC[C@H]1c1ncc(-c2ccc(-c3ccc(-c4cnc([C@@H]5CCCN5C(=O)[C@H](NC(=O)OC)c5ccccc5)[nH]4)cc3)cc2)[nH]1 [Example M64, methyl ((1R)-2-((2S)-2-(5-(4′-(2-((2S)-1-(N,N-dipropyl-D-alanyl)-2-pyrrolidinyl)-1H-imidazol-5-yl)-4-biphenylyl)-1H-imidazol-2-yl)-1-pyrrolidinyl)-2-oxo-1-phenylethyl)carbamate] | 1 to 99
COC(=O)N[C@@H](C)C(=O)N1CCC[C@H]1c1ncc(-c2ccc(-c3ccc(-c4cnc([C@@H]5CCCN5C(=O)[C@H]5CCCC[C@H]5NC(=O)OC)[nH]4)cc3)cc2)[nH]1 [cj-96, methyl ((1R,2S)-2-(((2S)-2-(5-(4′-(2-((2S)-1-(N-(methoxycarbonyl)-L-alanyl)-2-pyrrolidinyl)-1H-imidazol-5-yl)-4-biphenylyl)-1H-imidazol-2-yl)-1-pyrrolidinyl)carbonyl)cyclohexyl)carbamate] | 0.001 to 0.999
COC(=O)N[C@H](C(=O)N1CCC[C@H]1c1ncc(-c2ccc(-c3ccc(-c4cnc([C@@H]5CCCN5C(=O)[C@@H](NC(=O)OC)C(C)OC)[nH]4)c(F)c3)cc2F)[nH]1)C(C)C (stereo in doubt) [Example D56, methyl ((1S,2R)-1-(((2S)-2-(5-(3,3′-difluoro-4′-(2-((2S)-1-(N-(methoxycarbonyl)-L-valyl)-2-pyrrolidinyl)-1H-imidazol-5-yl)-4-biphenylyl)-1H-imidazol-2-yl)-1-pyrrolidinyl)carbonyl)-2-methoxypropyl) carbamate] | 0.001 to 0.999
COC(=O)N[C@@H](C(=O)N1CCC[C@H]1c1ncc(-c2ccc(-c3ccc(-c4cnc([C@@H]5CCCN5C(=O)[C@H](NC(=O)OC)c5ccccc5)[nH]4)nn3)nn2)[nH]1)c1ccccc1 [Example 153c-2, dimethyl (3,3′-bipyridazine-6,6′-diylbis(1H-imidazole-5,2-diyl(2S)-2,1-pyrrolidinediyl((1R)-2-oxo-1-phenyl-2,1-ethanediyl)))biscarbamate] | 1 to 99
CN(C)[C@@H](C(=O)N1CCC[C@H]1c1ncc(-c2ccc(-c3ccc(-c4cnc([C@@H]5CCCN5C(=O)[C@@](C)(O)c5ccccc5F)[nH]4)cc3)cc2)[nH]1)c1ccccc1 [Example 94-1, (2S)-1-((2S)-2-(5-(4′-(2-((2S)-1-((2R)-2-(dimethylamino)-2-phenylacetyl)-2-pyrrolidinyl)-1H-imidazol-5-yl)-4-biphenylyl)-1H-imidazol-2-yl)-1-pyrrolidinyl)-2-(2-fluorophenyl)-1-oxo-2-propanol] | 0.001 to 0.999
COC(=O)N[C@@H](C(=O)N1CCC[C@H]1c1ncc(-c2cnc(-c3ncc(-c4cnc([C@@H]5CCCN5C(=O)[C@H](NC(=O)OC)c5ccccc5)[nH]4)cn3)nc2)[nH]1)c1ccccc1 [Example 153c-4, dimethyl (2,2′-bipyrimidine-5,5′-diylbis(1H-imidazole-5,2-diyl(2S)-2,1-pyrrolidinediyl((1R)-2-oxo-1-phenyl-2,1-ethanediyl)))biscarbamate] | 1000 to 10000
CCN(C)[C@@H](C(=O)N1CCC[C@H]1c1ncc(-c2ccc(-c3ccc(-c4cnc([C@@H]5CCCN5C(=O)[C@@H](c5ccccc5)N(C)CC)[nH]4)cc3)cc2)[nH]1)c1ccccc1 [Example 22, (1R,1′R)-2,2′-(4,4′-biphenyldiylbis(1H-imidazole-5,2-diyl(2S)-2,1-pyrrolidinediyl))bis(N-ethyl-N-methyl-2-oxo-1-phenylethanamine)] | 0.001 to 0.999

Reference: patent US8574563B2 (Bristol-Myers Squibb Company, priority 2006, dated 2013)
